Where two headings read alike, the source gives them in different places.
Columns and labels:
human TRPV3 = target: T1, human TRPV3 (Homo sapiens, UniProt Q8NET8); experiment: In vitro antagonism of recombinant human TRPV3 activation (FLIPR Tetra calcium assay); type: cell-based; settings: HEK293 cells stably expressing human TRPV3, agonist 2-APB at 80 μM
T1 construct: expressed in transfected cells
T1 sequence (Q8NET8 1-790): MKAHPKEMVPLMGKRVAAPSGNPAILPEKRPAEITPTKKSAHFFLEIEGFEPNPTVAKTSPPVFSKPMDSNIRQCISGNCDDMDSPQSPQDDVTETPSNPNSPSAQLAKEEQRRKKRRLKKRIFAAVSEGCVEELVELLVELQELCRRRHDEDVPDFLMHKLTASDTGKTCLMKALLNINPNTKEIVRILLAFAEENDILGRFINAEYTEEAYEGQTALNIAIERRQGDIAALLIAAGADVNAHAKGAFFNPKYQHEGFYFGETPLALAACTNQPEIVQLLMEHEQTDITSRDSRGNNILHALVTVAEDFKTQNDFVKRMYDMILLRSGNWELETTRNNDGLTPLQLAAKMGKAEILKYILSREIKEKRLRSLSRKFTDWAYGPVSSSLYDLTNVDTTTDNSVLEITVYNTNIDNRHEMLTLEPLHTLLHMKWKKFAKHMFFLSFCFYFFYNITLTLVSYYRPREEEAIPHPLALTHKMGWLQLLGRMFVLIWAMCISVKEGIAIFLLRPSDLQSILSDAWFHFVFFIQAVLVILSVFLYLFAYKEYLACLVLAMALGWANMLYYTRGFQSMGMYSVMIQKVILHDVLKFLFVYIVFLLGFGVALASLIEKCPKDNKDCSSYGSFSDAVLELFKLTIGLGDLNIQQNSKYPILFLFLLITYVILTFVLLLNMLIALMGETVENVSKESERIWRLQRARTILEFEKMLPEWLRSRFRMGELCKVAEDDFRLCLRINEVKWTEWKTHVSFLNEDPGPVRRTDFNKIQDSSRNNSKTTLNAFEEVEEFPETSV
Summary of the method: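 Calcium flux read over a 10 min run: compound added at 10 s to Calcium-4-loaded human TRPV3-HEK293 cells, agonist 2-APB (80 μM, its EC80) after 3 min. IC50 derived from peak-minus-baseline signal as percentage of uninhibited 2-APB response, typically averaged over at least two runs.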

[1] = In vitro human microsomal stability assay; type: in vitro ADME; settings: human, microsomes, 0.5 h, 0.5 μM, pH 7.4
Summary of the method: (§1)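 Compound incubated at 37 °C with NADPH-supplemented liver microsomes, either human or from Sprague-Dawley rat, to assess metabolic stability.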

[2] = In vitro rat microsomal stability assay; type: in vitro ADME, rat (Sprague-Dawley); settings: Sprague-Dawley, rat, microsomes, 0.5 h, 0.5 μM, pH 7.4
Summary of the method: as §1

[3] = actual measured value shown parenthetically, in most cases average of at least two runs, read-out: IC50

Row | SMILES | IC50 (human TRPV3; [3]) [µM] | IC50 (human TRPV3; reported range, read-out: IC50 (range class)) [µM] | HUMAN MICROSOMAL STABILITY (% REMAINING AFTER 30 MINUTES) [1] [%] | RAT MICROSOMAL STABILITY (% REMAINING AFTER 30 MINUTES) [2] [%]
1 | OC(c1ccccn1)C1(c2cccc(F)c2)CCCO1 (single isomer, unassigned) [Example 101, (syn)-[2-(3-fluorophenyl)tetrahydrofuran-2-yl](pyridin-2-yl)methanol] | > 20 | > 20 | 40 | 0.17
2 | OC(c1ccccn1)C1(C2CCCc3ccccc32)CCC1 (stereo not shown) [Example 56, pyridin-2-yl[1-(1,2,3,4-tetrahydronaphthalen-1-yl)cyclobutyl]methanol] | 1.07 |  | 0.42 | 1.1
3 | O[C@H](c1ccccn1)C1(c2cc(C(F)(F)F)ccn2)CCC1 [Example 123, (S)-pyridin-2-yl{1-[4-(trifluoromethyl)pyridin-2-yl]cyclobutyl}methanol] | 0.39 |  | 21 | 11
4 | OC(c1ccccn1)C1(C2CCC(F)(F)CC2)CCC1 (stereo not shown) [Example 274, [1-(4,4-difluorocyclohexyl)cyclobutyl](pyridin-2-yl)methanol] | 3.11 |  | 55 | 10
5 | N[C@@H]1CCC[C@@H]1[C@@H](O)C1(c2ccc(OC(F)(F)F)cc2)CCC1 [Example 221, (R)-[(1S,2R)-2-aminocyclopentyl]{1-[4-(trifluoromethoxy)phenyl]-cyclobutyl}methanol] | 1.8 |  | 83 | 56
6 | NC1CCC1C(O)C1(c2cccc(C(F)(F)F)c2)CCC1 (stereo not shown) [Example 213, (2-aminocyclobutyl) {1-[3-(trifluoromethyl)phenyl]cyclobutyl}methanol] | 3.24 |  | >85 | 72
7 | OC(c1ccccn1)C1(C2CCc3ccccc32)CCC1 (stereo not shown) [Example 55, [1-(2,3-dihydro-1H-inden-1-yl)cyclobutyl](pyridin-2-yl)methanol] | 7.12 |  | 1.6 | 0.29
8 | O=C1CC(c2cccc(OC(F)(F)F)c2)([C@@H](O)c2ccccn2)C1 (single isomer, unassigned) [Example 257] | 9.51 |  | 42 | 57

Other lines, results leading:

Row | IC50 (human TRPV3; [3]) [µM] | IC50 (human TRPV3; reported range, read-out: IC50 (range class)) [µM] | HUMAN MICROSOMAL STABILITY (% REMAINING AFTER 30 MINUTES) [1] [%] | RAT MICROSOMAL STABILITY (% REMAINING AFTER 30 MINUTES) [2] [%] | SMILES
9 | 5.61 |  | 82 | 76 | OC(c1ccccn1)C1(c2ccc(C(F)(F)F)nc2)CCC1 (stereo not shown) [Example 85, pyridin-2-yl{1-[6-(trifluoromethyl)pyridin-3-yl]cyclobutyl}methanol]
10 | 1.51 |  | 0.12 | 0.18 | Cc1ccc(C2(C(O)c3ccccn3)CCC2)cc1 (stereo not shown) [Example 9, [1-(4-methylphenyl)cyclobutyl](pyridin-2-yl)methanol]
11 | 2.19 |  | 62 | 8.6 | OC(c1ccccn1)C1(c2nc3ccccc3o2)CCC1 (stereo not shown) [Example 271, [1-(1,3-benzoxazol-2-yl)cyclobutyl](pyridin-2-yl)methanol]
12 | 13.3 |  | 68 | 5.6 | O[C@@H](c1ncccn1)C1(c2ccc(Cl)c(Cl)c2)CCC1 [Example 40, (R)-[1-(3,4-dichlorophenyl)cyclobutyl](pyrimidin-2-yl)methanol]
13 | 0.54 |  | 4.0 | 17 | O[C@H](c1ccccn1)C1(c2ccc(Cl)c(Cl)c2)CC1 [Example 231, (S)-[1-(3,4-dichlorophenyl)cyclopropyl](pyridin-2-yl)methanol]
